The values below come from US8673969B2, “Substituted 4-β-acrylamidopodophyllotoxin congeners as antitumour antibiotics and the process for preparation thereof” (Council of Scientific & Industrial Research, priority 2010, dated 2014).

Read-outs that look alike come from different tables or passages of the source.

Type in all cases: cell-based
One assay concerns Zr-75-1. The assay can be described thus: SRB assay, breast cancer cell line Zr-75-1. The note with it: Homo sapiens, read-out: In vitro anticancer activity GI50, Breast Zr-75-1. How it is done: (§1) Single cell suspension of the tumour cells grown in tissue culture were made, cells counted and cell count adjusted to 1×10^5 to 5×10^5 cells/ml. Ninety six (96) well plates were seeded with this cell suspension, each well receiving 100 μl of it. The plate was then be incubated at 37° C. temperature in CO2 incubator for 24 hours. Drugs were added at concentrations after 24-hour incubation followed by further incubation for 48 hours. Experiment was terminated by gently layering the cells in the wells with 30% TCA and plates were kept in refrigerator for 1 hour following which they were washed thoroughly with tap water, dried attained with 0.4% SRB in 1% acetic aid and finally, the bound SRB eluted with 10 mM tris. Absorbance was read at 540 nm, in the microtitre-plate reader. Optical density of drug-treated cells was compared with that of control cells and cell inhibition was calculated as percent values. Each compound was tested at 10, 20, 40 and 80 μg/ml in triplicate on human malignant cell lines.
In general terms: In SRB staining, fixed cells bind dye roughly in proportion to their protein.

Another assay has as its system MCF7. The assay can be described thus: SRB assay, breast cancer cell line MCF7. Conditions: Homo sapiens, read-out: In vitro anticancer activity GI50, Breast MCF7. How it is done: as §1
The next assay relates to KB. The assay can be described thus: SRB assay, oral cancer cell line KB. Conditions: Homo sapiens, read-out: In vitro anticancer activity GI50, Oral KB. How it is done:
as §1

The next assay has as its system Gurav. The assay is described as follows: SRB assay, oral cancer cell line Gurav. The note with it: Homo sapiens, read-out: In vitro anticancer activity GI50, Oral Gurav. On the procedure: as §1
The test system of a further assay is DWD. The assay is described as follows: SRB assay, oral cancer cell line DWD. Conditions: Homo sapiens, read-out: In vitro anticancer activity GI50, Oral DWD. How it is done: as §1
A further assay has as its system Colo205. The assay can be described thus: SRB assay, colon cancer cell line Colo205. The note with it: Homo sapiens, read-out: In vitro anticancer activity GI50, Colon Colo205. On the procedure: as §1
The next assay concerns A-549. The assay is described as follows: SRB assay, lung cancer cell line A-549. The note with it: Homo sapiens, A549; SRB assay, 48 hours drug exposure; read-out: In vitro anticancer activity GI50, Lung A-549. On the procedure: as §1
The subject of another assay is Hop62. The assay can be described thus: SRB assay, lung cancer cell line Hop62. Conditions: Homo sapiens, read-out: In vitro anticancer activity GI50, Lung Hop62. How it is done: as §1
Another assay concerns A-2780. The assay is described as follows: SRB assay, ovarian cancer cell line A-2780. The note with it: Homo sapiens, read-out: In vitro anticancer activity GI50, Ovarian A-2780. On the procedure: as §1
[1] abbreviates: SRB assay, 48 hours drug exposure.

By GI50 is commonly meant the concentration that inhibits growth by half. `COc1cccc2c1C(=O)c1c(O)c3c(c(O)c1C2=O)C[C@@](O)(C(=O)CO)C[C@@H]3O[C@H]1C[C@H](N)[C@H](O)[C@H](C)O1` [ADR, adriamycin, reference compound]: the GI50 was 110 nM in the assay with Zr-75-1 (ZR-75-1, SRB assay, 48 hours drug exposure); 130 nM with MCF7 (MCF7, SRB assay, 48 hours drug exposure); 130 nM in the assay on KB (setting [1]); under 100 nM in the assay with Gurav (setting [1]); 100 nM in the assay with DWD (setting [1]); under 100 nM in the assay on Colo205 (COLO 205, SRB assay, 48 hours drug exposure). For the same molecule, the GI50 is under 100 nM in the assay with A-549; 150 nM with Hop62 (HOP-62, SRB assay, 48 hours drug exposure); under 100 nM in the assay on A-2780 (A2780, SRB assay, 48 hours drug exposure).
Regarding `COc1cc(/C(=C\c2ccc(O)c([N+](=O)[O-])c2)C(=O)N[C@@H]2c3cc4c(cc3[C@@H](c3cc(OC)c(OC)c(OC)c3)[C@H]3C(=O)OC[C@@H]32)OCO4)cc(OC)c1OC` [Compound 3g, 4β-(E)-3-(4-hydroxy-3-nitrophenyl)-2-(3,4,5-trimethoxyphenyl)acrylamidopodophyllotoxin], the concentration for 50% growth inhibition (GI50) is 180 nM in the assay on Zr-75-1 (ZR-75-1, 48 h); 2700 nM in the assay on MCF7 (MCF7, 48 h); 2200 nM in the assay on KB (48 h); 190 nM in the assay on Gurav (48 h); under 100 nM in the assay with DWD (48 h); 2000 nM in the assay on Colo205 (COLO 205, 48 h). The GI50 with Hop62 (HOP-62, 48 h) amounted to 190 nM; with A-2780 (A2780, 48 h) it was 2200 nM.
